The first assay has as its system MOLM-13. The assay is described as follows: Antiproliferative activity against human MOLM-13 cells assessed as reduction in cell viability measured after 72 hrs by Celltiter-Glo assay. In kind it is functional, cell-based. Conditions: MOLM-13, 72 h.
In general, IC50 refers to the concentration that gives 50% inhibition. On to `C=C(C)c1cn(-c2c(F)cccc2Cl)c(=O)c2cc(F)c(-n3nc(CO)n(CC)c3=O)cc12`, for which the IC50 amounted to 100 pM.

For `CCn1c(CO)nn(-c2cc3c(C(C)C)cn(-c4ccccc4C)c(=O)c3cc2F)c1=O`, the IC50 was 200 pM.

On to `C=C(C)c1cn(-c2ccccc2F)c(=O)c2cc(F)c(-n3nc(CO)n(CC)c3=O)cc12`, for which the IC50 worked out at 300 pM.

`C=C(C)c1cn(-c2c(F)ccc(OC)c2Cl)c(=O)c2cc(F)c(-n3nc(CO)n(CC)c3=O)cc12`: the IC50 stood at 100 pM.

For the molecule `C=C(C)c1cn(-c2cc(F)ccc2C)c(=O)c2cc(F)c(-n3nc(CO)n(CC)c3=O)cc12`, the half-inhibitory concentration (IC50) is 90 pM.

As for `CCn1c(CO)nn(-c2cc3c(C(C)C)cn(-c4c(F)cccc4Cl)c(=O)c3cc2F)c1=O`, the IC50 was 200 pM.

In the next assay the target is Dihydroorotate dehydrogenase (quinone), mitochondrial (Homo sapiens, UniProt Q02127). The assay is described as follows: Inhibition of human DHODH (30 to 390 residues) expressed in Escherichia coli using dihydroorotate as substrate and CoQ10 as co-substrate by DCIP dye based spectrophotometry analysis.
Sequence of Dihydroorotate dehydrogenase (quinone), mitochondrial (Q02127 whole entry, the tested form may be a part): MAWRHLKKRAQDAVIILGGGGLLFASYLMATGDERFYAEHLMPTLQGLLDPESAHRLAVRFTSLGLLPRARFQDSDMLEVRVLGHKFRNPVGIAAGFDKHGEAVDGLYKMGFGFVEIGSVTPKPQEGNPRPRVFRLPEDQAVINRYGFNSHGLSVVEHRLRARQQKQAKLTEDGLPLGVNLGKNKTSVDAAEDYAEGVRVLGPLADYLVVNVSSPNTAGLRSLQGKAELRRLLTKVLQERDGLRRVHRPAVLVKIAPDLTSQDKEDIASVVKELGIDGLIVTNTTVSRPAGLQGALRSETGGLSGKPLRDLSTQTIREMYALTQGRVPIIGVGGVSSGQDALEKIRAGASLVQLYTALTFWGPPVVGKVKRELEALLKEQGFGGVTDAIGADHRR
Settings: not given
The molecule `C=C(C)c1cn(-c2ccccc2F)c(=O)c2cc(F)c(-n3nc(CO)n(CC)c3=O)cc12` came in with a half-inhibitory concentration (IC50) of under 169 pM.

(Values after ChEMBL document CHEMBL4673397, “Dihydroorotate Dehydrogenase Inhibitors for Treating Acute Myelogenous Leukemia (AML)” (ACS Med Chem Lett, 2021).)
